Test results as given in patent US7807176B2, “Polypeptide promoting vascular endothelial cell growth” (Genomidea, Inc., priority 2004, dated 2010).

How the values were obtained:
[1] = test system: phosphatidyl inositol-3-kinase/Akt (PI3K/Akt); settings: according to a previous study; cited from earlier work
tube formation = assay: Tube formation, Kurabo Angiogenesis kit with CD31 staining and image quantification; assay type: cell-based, human; settings: for Area (% increase): Example 5, Table 4; for Length (% increase): Example 5, Table 5; for tube Area % Increase / tube Length % Increase: Table 2
Experimental: Using a Kurabo Angiogenesis kit (KZ-1000, Kurabo Industries Ltd.), tube formation was examined. A blank, vascular endothelial growth factor-A protein (VEGF-A), pVEGF plasmid (plasmid containing a gene encoding vascular endothelial growth factor), and pSPORT1 (a plasmid not containing a gene encoding vascular endothelial growth factor) were used as controls. […]
Culture was carried out at 37° C. in a 5% CO2 incubator. The medium was exchanged on the 4th, 7th and 9th days of culture with a fresh medium containing the same additives.
CD31 (PECAM-1) staining primary antibody (mouse anti-human CD31 antibody) was diluted 4,000-fold with a blocking solution (Dulbecco's phosphate buffer solution (PBS(−)) containing 1% BSA). 0.5 ml of this primary antibody solution was added to each well and incubated for 60 minutes at 37° C. After incubation was finished, each well was washed 3 times with 1 ml blocking solution.
Then, 0.5 ml of a secondary antibody (goat anti-mouse IgG/alkali phosphatase conjugate) solution, diluted 500-fold with the blocking solution, was added to each well and incubated for 60 minutes at 37° C., and each well was washed 3 times with 1 ml distilled water. Separately, 2 tablets of BCIP/NBT were dissolved in 20 ml distilled water and filtered through a filter with a pore size of 0.2 μm, to prepare a substrate solution. 0.5 ml of the prepared BCIP/NBT substrate solution was added to each well and incubated at 37° C. until the tube turned deep violet (usually in 5 to 10 minutes). After incubation was finished, each well was washed 3 times with 1 ml distilled water, followed by removing the washing solution using suction, and the plate was left to air-dry. After drying, each well was observed under a microscope.
Each well was observed under a 40× magnification microscope and a photograph of each well was taken. An enlarged photograph with the scale of 1 mm magnified 40-fold was taken (FIG. 5).
Each of the resulting images was quantified with angiogenesis quantification software (KSW-5000U, Kurabo Industries Ltd.) according to the following method. The area (left in FIG. 6) and length (right in FIG. 6) of tubes formed in each visual field were measured on the scale by computer analysis with various indicators. […]

HAEC = assay: MTS assay of endothelial cell proliferation with added peptide; assay type: cell-based, human; settings: MTS, Table 3
Experimental: F2 peptide was synthesized and then contacted in a varying amount with HAEC, and the ability thereof to proliferate the cells was examined by MTS assay. The MTS assay is a modification of the MTT assay, and is a method of measuring living cells based on a reaction of reducing tetrazolium salt (MTS) by living cells in culture, into a colored product formazan. Specifically, this assay is carried out as follows: • HAEC was inoculated onto a 96-well plate at a density of 750 cells/well. • 2 μl/well of each sample was added to 100 μl/well endothelial cell medium (1% FBS, without EGF). 2 μl/well was added every day (until Day 6) (the medium was not exchanged). • 20 μl measurement solution (Cell Titer 96 AQueous One Solution Cell Proliferation Assay (Promega)) was added to each well and mixed with 100 μl of the endothelial cell medium, and the old medium was removed by suction. A mixed suspension of the measurement solution and the cells was put in a volume of 120 μl/well and then incubated for 1 to 5 hours in a CO2 incubator. • The absorbance at 490 nm was measured with a plate reader.
The sample group (8 wells each) is as follows: • NC: Only EBM medium (endothelial cell medium) containing 1% FBS. The other samples were cultured by adding various peptides to this medium containing serum. • VEGF-A: Recombinant VEGF-A (KURABO) was added at a final concentration of 10 ng/ml. • F2-1: F2 peptide was added at a final concentration of 1 ng/ml. • F2-10: F2 peptide was added at a final concentration of 10 ng/ml. • F2-100: F2 peptide was added at a final concentration of 100 ng/ml. • F2-1000: F2 peptide was added at a final concentration of 1000 ng/ml.

[2] = test system: ERK (extracellular signal-related kinase); settings: according to a previous study; cited from earlier work
HEAC endothelial cells = assay: Endothelial cell migration, modified Boyden chamber; assay type: cell-based, human
Experimental: A polyvinyl pyrrolidone (PVP)-free polycarbonate membrane having […] (Neuro Probe Inc., Gaithersburg, Md.) was coated overnight with 0.1% gelatin and then washed with phosphate buffered saline to remove an excess of the gelatin coating. Then, 28 μl growth factor-free EBM2 medium supplemented with 1% FBS was arranged in a lower chamber, and the membrane was arranged on the lower chamber. […] The Boyden chamber was incubated at 37° C. for 4 hours. After incubation, the membrane was removed and the cells on the upper side of the membrane were removed. The cells on the lower side of the membrane were stained with Diff-Quick (Sysmex, Hyogo Pref., JP). The cells in each of randomly selected 8 visual fields (×100) were counted.

c-fos promoter = c-fos promoter assay (c-fos-Luci luciferase); assay type: cell-based, bovine
Experimental: To further confirm the proliferation ability, an assay using a promoter of proto-oncogene c-fos, which is activated in the earliest stage of cell proliferation, was carried out. The gene c-fos-Luci having luciferase ligated under this promoter, and a candidate gene, were introduced in a weight ratio of 1:1 by lipofection into bovine vascular endothelial cells, and after 24 to 48 hours, the luciferase activity was measured.

VEGF promoter = VEGF promoter assay (luciferase gene ligated to VEGF promoter); assay type: cell-based, bovine; settings: FIG. 3 right graph
[3] = test system: human aortic endothelial cells (HAEC); assay: Cell proliferation assay after gene transfer into HAEC (Cell Titer 96); assay type: cell-based; settings: HAEC as host cell; FIG. 4
Experimental: A human heart cDNA library (a plasmid having human heart-derived cDNA ligated to plasmid pSPORT having a CMV promoter; GIBCO BRL) was introduced into E. coli DH12S, and the plasmid prepared from the E. coli. 200 μg of the plasmid was encapsulated in 10000 HAU of the HVJ-E gene-transfer vector (the gene-transfer vector, 3×10^9 particles, prepared in Example 2 in the present invention). As host cells, human aortic endothelial cells HEAC (Sanko Junyaku Co., Ltd.), about 5000 cells, were added together with medium to each well of a 96-well microtiter plate, then cultured overnight and used. 1/100 of the HVJ-E was added to each well containing the host cells, and then left at 37° C. for 30 minutes, followed by exchanging the medium. […]
After2 weeks, a cell proliferation assay was carried out. Using Cell Titer 96 (Promega) as a reagent, the oxidoreduction of mitochondria was measured as a change in the color of the reagent and used as an indicator of cell growth. […]
Each of nine clones having the insert was encapsulated respectively in HVJ-E and subjected to a second screening, and as a result, a gene showing a high proliferation activity was obtained. […] The gene c-fos-Luci having luciferase ligated under this promoter, and a candidate gene, were introduced in a weight ratio of 1:1 by lipofection into bovine vascular endothelial cells, and after 24 to 48 hours, the luciferase activity was measured. […]

[4] = test system: human vascular smooth muscle cell (VSMC); assay: Cell proliferation after gene transfer into VSMC; assay type: cell-based; settings: FIG. 4

Substance: LL-37 peptide: peptide having antimicrobial activity, angiogenesis activity and artery-forming activity; rich in arginine, α-helix structure [reference compound]
- effect on PI3K/Akt activity [1]: increased rapidly
- Area (% increase) (tube formation; 1 μg/ml): 70.1%
- Length (% increase) (tube formation; 1 μg/ml): 60.9%
- Area (% increase) (tube formation; 10 μg/ml): 43%
- Length (% increase) (tube formation; 10 μg/ml): 28%
- endothelial proliferation Increase [times] (HAEC; 100 ng/ml): 1.279 times
- endothelial proliferation Increase [times] (HAEC; 1 μg/ml): 1.361 times
- effect on ERK activity [2]: increased rapidly

Substance: RSLEGTDRFPFVRLKNSRKLEFKDIKGIKR (CONTROL PEPTIDE) [reference compound]
- tube Area % Increase (tube formation; 1 μg/ml): −12%
- tube Length % Increase (tube formation; 1 μg/ml): −11%
- tube Area % Increase (tube formation; 10 μg/ml): −9%
- tube Length % Increase (tube formation; 10 μg/ml): −3%
- migration % Increase (HEAC endothelial cells; 1 μg/ml, 4 hours): −10.1%
- cell migration activity (in words) (HEAC endothelial cells; F2 0.01 to 1 μg/ml, control peptide 1 μg/ml, VEGF 50 ng/ml, FIG. 10): not observed

Substance: f1: gene fragment, nucleotide sequence No. 2764-3073 in the frame of SART-2, ligated with expression vector pCDNA3.1
- activity in c-fos promoter assay of gene fragments in pCDNA3.1 (c-fos promoter; FIG. 8): no activity

Substance: p3743: gene clone (plasmid) from a human heart cDNA library; insert is nucleotide sequence No. 2364-3958 in SART-2
- ability to activate the c-fos promoter, compared with VEGF (c-fos promoter; FIG. 3 left graph): higher ability to activate the c-fos promoter than VEGF
- luciferase activity (activation of c-fos promoter), compared with HGF (c-fos promoter; candidate gene and c-fos-Luci 1:1 by lipofection, bovine vascular endothelial cells, after 24 to 48 hours, FIG. 2): higher luciferase activity than HGF
- activation of the VEGF promoter, compared with VEGF (VEGF promoter): higher activation of the VEGF promoter than by VEGF
- proliferation ability in HAEC after gene introduction [3]: higher proliferation ability than HGF
- area and length of the formed tubes (tube formation; supernatant of HAEC into which the gene had been introduced, FIG. 6): significantly greater
- proliferation activity in human vascular smooth muscle cells after gene introduction [4]: same as that of the negative control, GFP
